Experiment [1] relates to keratinocytes. In words: Keratinocyte cell growth induced by EGF and BPE. The class given is cell-based. The settings on record: six days of treatment. The method, then:
In these studies, keratinocytes were grown in Medium154, a low calcium medium supplemented with bovine pituitary extract (BPE), bovine insulin, bovine transferrin, human epidermal growth factor (EGF) and hydrocortisone. Keratinocytes were grown to 60-80% confluence and subcultured by using trypsin/EDTA. Four separate experiments were performed to evaluate the dose-dependent effect of topiramate on keratinocyte cell growth as measured by […] after six days of treatment. Topiramate was dissolved in DMSO to make a 100 mM stock solution. In all experiments the final concentration of DMSO in the cell incubation medium was 0.1%. Vehicle controls (0.1% DMSO) were included in each experiment. Cell growth was induced by a combination of the growth factors EGF and BPE.

In experiment [2] the test system is seizures. The following applies: several rodent models of epilepsy; cited from earlier work.
Experiment [3] concerns keratinocytes. In words: Keratinocyte differentiation measured by expression of transglutaminase-1 protein. Format: cell-based. The procedure: In these studies, keratinocytes were grown in Medium154, a low calcium medium supplemented with bovine pituitary extract (BPE), bovine insulin, bovine transferrin, human epidermal growth factor (EGF) and hydrocortisone. Keratinocytes were grown to 60-80% confluence and subcultured by using trypsin/EDTA. The effect of topiramate on keratinocyte differentiation was measured by the expression of transglutaminase-1 protein after three days of treatment. Three separate experiments were performed. Differentiation was evaluated in both low calcium and high calcium incubation conditions. An increase in differentiation would be most readily observed under low calcium conditions whereas an inhibition of differentiation could be detected under conditions of high calcium-induced differentiation. […] A follow-up study was conducted which extended the incubation time to 5 days to look for further enhancement.

For experiment [4], the system named is seizures. The following applies: animal model of kindled epilepsy; cited from earlier work.
The test system of experiment [5] is simple and complex partial seizures and secondarily generalized seizures. The following applies: clinical trials; adjunctive therapy or monotherapy; cited from earlier work.
The subject of experiment [6] is psoriatic lesions. The experiment in a line: Clinical studies of topiramate in epilepsy; patients who coincidentally had psoriasis. Format: in vivo, human. The settings on record: reported by at least three epilepsy-trial patients who coincidentally had psoriasis. The method, then: The activity of the compounds of formula I in treating psoriasis was first evidenced in clinical studies conducted to evaluate the efficacy of topiramate in treating epilepsy. […] Therefore, preclinical in vitro studies were conducted to evaluate the effects of topiramate on keratinocyte function as a putative mechanism of action for its potential beneficial effects in treating psoriasis. One of the hallmarks of psoriatic lesions is hyperproliferative epidermal keratinocytes. In general, agents that affect the proliferation of keratinocytes have an inverse effect on differentiation, i.e. they would inhibit growth and enhance differentiation. Two measures of keratinocyte function were therefore evaluated: cell growth and differentiation.

The structures appear in SMILES notation. Read-outs that look alike come from different tables or passages of the source.

Regarding `CC1(C)O[C@@H]2[C@@H](CO[C@@]3(COS(N)(=O)=O)OC(C)(C)O[C@@H]23)O1` [topiramate, 2,3:4,5-bis-O-(1-methylethylidene)-β-D-fructopyranose sulfamate], the Emax at 10 µM in experiment [1] (Keratinocyte, 144 h, 10 micromolar, growth induced by EGF and BPE, four experiments, not statistically significant (p>0.05), read-out: inhibition of cell growth (maximal response)) worked out at 32 ± 10%. Further, the “dose dependence of the effect on keratinocyte cell growth” value in experiment [1] (four experiments) is “no dose dependence was observed”. Further, the “effect on keratinocyte cell growth” value in experiment [1] (growth induced by EGF and BPE, 0.1% DMSO) is recorded as “modest inhibitory effect”. In addition, the block of seizures result in experiment [2] and in experiment [4] was “effectively block seizures” in each case. Moreover, the transglutaminase-1 protein result in experiment [3] (follow-up study, incubation time extended to 5 days) was “No additional increases”; in experiment [3] (high calcium incubation conditions, three days of treatment) it was “modest increase”; in experiment [3] (low calcium incubation conditions, three days of treatment), “modest increase”. Besides, the “efficacy in treating simple and complex partial seizures and secondarily generalized seizures” value in experiment [5] was “effective as adjunctive therapy or as monotherapy”. Further, the psoriatic lesions result in experiment [6] was “marked reduction in the psoriatic lesions”.

Values taken from patent publication EP0964681B1, “ANTICONVULSANT DERIVATIVES USEFUL IN TREATING PSORIASIS” (Ortho-McNeil Pharmaceutical, Inc., priority 1996, dated 1998).
